# Test results: patent US20210085640A1, “ACYLATED CATECHIN POLYPHENOLS AND METHODS OF THEIR USE FOR THE TREATMENT OF CANCER” (Flagship Pioneering Innovations V, Inc., priority 2018, published 2021)
# Assays:
# Assay type in all cases: cell-based
# T24 bladder cancer cells = test: Cancer cell survival (CellTiter-Glo), T24; conditions: Homo sapiens, 72 h, read-out: Cell survival at given concentration
# In short: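 Viability by CellTiter-Glo after 72 h compound treatment of T24 bladder cancer cells (4×10^3/well, plated the night before), nine concentration levels in triplicate. Percent survival normalised to untreated cells minus medium background, from which IC50 was determined.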
# [1] = system: Daudi lymphoma cancer cells; test: Cancer cell survival (CellTiter-Glo), Daudi; conditions: Homo sapiens, 72 h, read-out: Cell survival at given concentration
# In short: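 Daudi cells (4×10^3/well) were exposed for 72 h at 37 °C to nine concentrations of compound, added as 10× solutions spanning 1 μM–10 mM (fatty acids) or 100 nM–1 mM (others). CellTiter-Glo luminescence gave % survival versus untreated, medium-blank corrected; IC50 derived.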
# MCF7 breast cancer cells = test: Cancer cell survival (CellTiter-Glo), MCF7; conditions: Homo sapiens, 72 h, read-out: Cell survival at given concentration
# In short: (§1)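 Luminescent ATP read-out (CellTiter-Glo) after 72 h compound exposure at 37 C/5% CO2. Survival % is calculated against untreated cells minus medium background, and IC50 is taken from nine concentrations run in triplicate. Plating density was 4×10^3 cells/well with overnight attachment beforehand.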
# [2] = system: HCT 116 colorectal cancer cells; test: Cancer cell survival (CellTiter-Glo), HCT 116; conditions: Homo sapiens, HCT 116 cells, 72 h, read-out: Cell survival at given concentration
# In short: as §1
# A549 lung cancer cells = test: Cancer cell survival (CellTiter-Glo), A549; conditions: Homo sapiens, 72 h, read-out: Cell survival at given concentration
# In short: as §1
# [3] = system: PC-3 prostate cancer cells; test: Cancer cell survival (CellTiter-Glo), PC-3; conditions: Homo sapiens, PC-3 cells, 72 h, read-out: Cell survival at given concentration
# In short: as §1
# A-431 skin cancer cells = test: Cancer cell survival (CellTiter-Glo), A-431; conditions: Homo sapiens, A-431 cells, 72 h, read-out: Cell survival at given concentration
# In short: as §1
# AGS stomach cancer cells = test: Cancer cell survival (CellTiter-Glo), AGS; conditions: 72 h
# In short: as §1
# [4] = Human Regulatory T Cell Differentiation Assay; conditions: human, primary naïve CD4+ T cells isolated from PBMCs, read-out: Cell viability % DMSO
# Description: Peripheral blood mononuclear cells (PBMCs) from whole blood donated by health volunteers were separated by Ficoll-Paque gradient centrifugation and naïve CD4^+ T cells were subsequently isolated using magnet beads (EasySep™ Human Naïve CD4^+ T Cell Isolation Kit, Cambridge, Mass.). For regulatory T cell (Treg) differentiation assay, naïve CD4^+ T cells were cultured (1-10×10^4 cells) in CTS OpTmizer medium for 6 days and stimulated with 5 ng/ml TGF-β, 100 U/ml IL-2, and ImmunoCult™ Human […] T Cell Activator; Stemcell #10990) with/without Compounds. Cell viability was determined using a viability dye (eBioscience Fixable Viability Dye eFluor 780: ThermoFisher 65-0865-14) at 1:500 dilution. The cells were gated for Treg, defined as Live, CD11c^−, CD14^−, CD19^−, CD8^−, CD4^+, CD3^+, CD25^+, FOXP3^+. Percent (%) Tregs were calculated as percentage of CD4^+, CD25^+, FOXP3^+ cells over total CD4^+ T cells. Statistical analysis was performed with GraphPad Prism Software Using One-Way ANOVA.
smiles,measurement,setting,value
O=C[C@H](O)[C@@H](O)[C@@H](O)CO [L-arabinose],viability at 0.101 µM,"T24 bladder cancer cells; T-24, 101 nM",100%
same,viability at 0.318 µM,"T24 bladder cancer cells; T-24, 318 nM",103%
same,viability at 1 µM,"T24 bladder cancer cells; T-24, 1 μM",100%
same,viability at 3 µM,"T24 bladder cancer cells; T-24, 3 μM",103%
same,viability at 10 µM,"T24 bladder cancer cells; T-24, 10 μM",102%
same,viability at 32 µM,"T24 bladder cancer cells; T-24, 32 μM",105%
same,viability at 100 µM,"T24 bladder cancer cells; T-24, 100 μM",101%
same,viability at 316 µM,"T24 bladder cancer cells; T-24, 316 μM",101%
same,viability at 1000 µM,"T24 bladder cancer cells; T-24, 1000 μM",104%
same,viability at 0.101 µM,[1]; 101 nM,100%
same,viability at 0.318 µM,[1]; 318 nM,100%
same,viability at 1 µM,[1]; 1 μM,100%
same,viability at 3 µM,[1]; 3 μM,99%
same,viability at 10 µM,[1]; 10 μM,102%
same,viability at 32 µM,[1]; 32 μM,102%
same,viability at 100 µM,[1]; 100 μM,103%
same,viability at 316 µM,[1]; 316 μM,102%
same,viability at 1000 µM,[1]; 1000 μM,102%
same,viability at 0.101 µM,MCF7 breast cancer cells; 101 nM,99%
same,viability at 0.318 µM,MCF7 breast cancer cells; 318 nM,101%
same,viability at 1 µM,MCF7 breast cancer cells; 1 μM,98%
same,viability at 3 µM,MCF7 breast cancer cells; 3 μM,101%
same,viability at 10 µM,MCF7 breast cancer cells; 10 μM,99%
same,viability at 32 µM,MCF7 breast cancer cells; 32 μM,101%
same,viability at 100 µM,MCF7 breast cancer cells; 100 μM,99%
same,viability at 316 µM,MCF7 breast cancer cells; 316 μM,98%
same,viability at 1000 µM,MCF7 breast cancer cells; 1000 μM,98%
same,viability at 0.101 µM,[2]; 101 nM,101%
same,viability at 0.318 µM,[2]; 318 nM,101%
same,viability at 1 µM,[2]; 1 μM,101%
same,viability at 3 µM,[2]; 3 μM,103%
same,viability at 10 µM,[2]; 10 μM,103%
same,viability at 32 µM,[2]; 32 μM,104%
same,viability at 100 µM,[2]; 100 μM,104%
same,viability at 316 µM,[2]; 316 μM,102%
same,viability at 1000 µM,[2]; 1000 μM,99%
same,viability at 0.101 µM,A549 lung cancer cells; 101 nM,101%
same,viability at 0.318 µM,A549 lung cancer cells; 318 nM,103%
same,viability at 1 µM,A549 lung cancer cells; 1 μM,104%
same,viability at 3 µM,A549 lung cancer cells; 3 μM,102%
same,viability at 10 µM,A549 lung cancer cells; 10 μM,103%
same,viability at 32 µM,A549 lung cancer cells; 32 μM,103%
same,viability at 100 µM,A549 lung cancer cells; 100 μM,102%
same,viability at 316 µM,A549 lung cancer cells; 316 μM,102%
same,viability at 1000 µM,A549 lung cancer cells; 1000 μM,104%
same,viability at 0.101 µM,[3]; 101 nM,103%
same,viability at 0.318 µM,[3]; 318 nM,100%
same,viability at 1 µM,[3]; 1 μM,100%
same,viability at 3 µM,[3]; 3 μM,101%
same,viability at 10 µM,[3]; 10 μM,103%
same,viability at 32 µM,[3]; 32 μM,101%
same,viability at 100 µM,[3]; 100 μM,100%
same,viability at 316 µM,[3]; 316 μM,101%
same,viability at 1000 µM,[3]; 1000 μM,100%
same,viability at 0.101 µM,A-431 skin cancer cells; 101 nM,103%
same,viability at 0.318 µM,A-431 skin cancer cells; 318 nM,102%
same,viability at 1 µM,A-431 skin cancer cells; 1 μM,102%
same,viability at 3 µM,A-431 skin cancer cells; 3 μM,103%
same,viability at 10 µM,A-431 skin cancer cells; 10 μM,103%
same,viability at 32 µM,A-431 skin cancer cells; 32 μM,105%
same,viability at 100 µM,A-431 skin cancer cells; 100 μM,105%
same,viability at 316 µM,A-431 skin cancer cells; 316 μM,105%
same,viability at 1000 µM,A-431 skin cancer cells; 1000 μM,102%
same,viability at 0.101 µM,"AGS stomach cancer cells; 101 nM, read-out: Cell survival at given concentration",100%
same,viability at 0.318 µM,"AGS stomach cancer cells; 318 nM, read-out: Cell survival at given concentration",102%
same,viability at 1 µM,"AGS stomach cancer cells; 1 μM, Table 10.1, read-out: Cell survival at given concentration",101%
same,viability at 3 µM,"AGS stomach cancer cells; 3 μM, Table 10.1, read-out: Cell survival at given concentration",102%
same,viability at 10 µM,"AGS stomach cancer cells; 10 μM, Table 10.1, read-out: Cell survival at given concentration",102%
same,viability at 32 µM,"AGS stomach cancer cells; 32 μM, Table 10.1, read-out: Cell survival at given concentration",104%
same,viability at 100 µM,"AGS stomach cancer cells; 100 μM, Table 10.1, read-out: Cell survival at given concentration",105%
same,viability at 316 µM,"AGS stomach cancer cells; 316 μM, read-out: Cell survival at given concentration",102%
same,viability at 1000 µM,"AGS stomach cancer cells; 1000 μM, read-out: Cell survival at given concentration",101%
same,"viability at 6 days, 0.5 mM",[4]; 0.5 mM,90 to 110%
same,"viability at 6 days, 1 mM",[4]; 1 mM,90 to 110%
